Laboratory results published in patent US20240342255A1, “TARGETING 3-KETODIHYDROSPHINGOSINE REDUCTASE (KDSR) IN CANCER” (UNIVERSITY OF MASSACHUSETTS, priority 2021, published 2024).
Values joined by “and” are separate entries in the source; they are usually repeats but may differ in a detail not shown here. Identical values can stand only once. Residues, ends and D or L forms follow the SMILES beside them. *: point of attachment. Cbz = O=C(OCc1ccccc1)*

Legend:
Format in all cases: cell-based
DLD1 cells [1] = assay: Cell viability (CellTiter-Glo) with exogenous 3KDS treatment
Protocol: Cell viability was measured using CellTiter-Glo 2.0 Cell Viability Assay (Promega), which measures the number of viable (metabolically active) cells in culture by quantitating the amount of ATP present. CellTiter-Glo (CTG) Reagent and 96 well plates containing the cells were equilibrated to room temperature, 20 ul of CTG reagent was added to each well of cells and incubated for 20 minutes protected from light. Luminescence was read with an integration time of 1.0 sec using the Beckman Coulter DTX880 Multimode Detector plate reader.
For determination of relative viability as depicted in figures, CTG was measured at 2 different timepoints. The first viability measurement was taken as the baseline on the day after cells were plated to 96 wells, and the second viability measurement was taken at a later timepoint (1-5 days after baseline) to calculate the fold change viable cells over time for each condition (Day X CTG/Baseline CTG). These fold change values were then divided by the fold change of the control condition (=1.0) to determine the relative viability.

DLD1 cells [2] = assay: Cell morphology by light microscope / calnexin immunofluorescence
DLD1 cells [3] = assay: Western blot of K48 ubiquitinated proteins; settings: DLD1 cells treated with MG132 (FIG. 4C)
Protocol: (§1) Cells were washed in cold PBS and resuspended in 1% Triton-X 100 containing protease inhibitor cocktail and lysed on ice. Following cell lysis, samples were centrifuged at 13,000 rpm at 4° C. for 10 min to remove cell debris and the supernatant (cell lysate) was collected. The protein concentration of each lysate was measured by Bradford Assay. Western blot samples were prepared by diluting lysates in 6× Laemmli Buffer and boiled at 95° C. for 10 min. Samples were loaded to polyacrylamide gels at equal protein concentrations and analyzed by standard SDS-PAGE western blotting techniques. Protein levels were detected using HRP-conjugated secondary antibodies and chemiluminescent substrates (Pierce ECL or Pico PLUS).

DLD1 cells [4] = assay: Protein aggresome staining; settings: 3 μM MG132, 18 hr
Protocol: Cells were grown on coverslips coated with PDL/laminin and were stained for protein aggresomes at 9 days post lentiviral infection for CTRL or KDSR KO or 18 hr post treatment with vehicle or 3 uM MG132. Protein aggresomes were detected using the PROTOEOSTAT Aggresome detection kit (Enzo Life Sciences), which contains a dye that fluoresces upon intercalation into the cross-beta spine of protein structures found in misfolded and aggregated proteins. For aggresome staining, cells were fixed in 4% PFA, washed in PBS, and permeabilized in 0.5% TXB on ice with gentle shaking for 30 minutes. Cells were washed in PBS following permeabilization and were subsequently incubated with the Aggresome Detection Reagent diluted 1:2000 in PBS for 45 min at room temperature protected from light. Cells were washed with PBS after staining and coverslips were mounted to microscope slides using ProLong Gold Antifade Mountant containing DAPI. Cells were imaged using the Zeiss LSM700 confocal microscope and Zen Black 2012 Software.

DLD1 cells [5] = assay: LC-MS quantification of 3KDS in cultured cells
Protocol: The levels of 3-ketodihydrosphingosine (3KDS) were quantified in both cells grown in culture and in tumor tissues from the in vivo xenograft experiment. Lipid analysis was performed at the UCSD Lipidomics Core^17. For the in vitro experiment, DLD1 cells were infected for lentiviral transduction of pLCv2 with nontargeting CTRL guide, KDSR g1, or SPTLC1 g1. Cells were selected with puromycin for 5 days and were treated with the appropriate conditions (vehicle, 50 uM palmitate, 15 uM myriocin) at 6 days post infection. Cells were trypsinized, quickly washed 2× in cold PBS, centrifuged, and the cell pellet was collected for analysis at 8 days post lentiviral infection and 48 hr post treatment. 3KDS quantification was normalized to the protein content of n=3 independently prepared cell extracts for each condition.
Samples were extracted with DCM/MeOH (1:1) and 1× internal standards were added to extracts. Samples were vortexed, sonicated for 10 minutes, and then centrifuged at 5000 rpm for 5 min. Samples were re-extracted, combined, and dried down in a speed vac. Samples were run on the ACQUITY UPLC System (Waters) on a Phenomenex Kinetex C18 column. Mass spectrometry analysis was performed on the Sciex 6500 Qtrap mass spectrometer and data were analyzed using Sciex Analyst and Multiquant software packages.

DLD1 cells [6] = assay: Myriocin rescue and palmitate synergy viability experiments in KDSR KO cells
Protocol: Cells were plated to 6 wells and infected with lentiviruses containing pLCv2 CTRL or guides targeting KDSR. Cells were selected with puromycin for 4-5 days and were then counted and plated to 96 well plates at 6 days post lentiviral infection at 600-800 cells/well in technical triplicate or quadruplicate. Baseline cell viability was read at 7 days post infection, at which time the other 96 well plates (to be read at later timepoints) were treated with DMSO vehicle or 2 uM myriocin for rescue experiments or with EtOH vehicle or 50 uM palmitate for synergy experiments. For myriocin rescue experiments, subsequent CTG readings were taken at days 3 and 5 post treatment (10 and 12 days post infection) to determine the effect of SPT inhibition on KDSR KO toxicity. For synergy experiments, subsequent CTG readings were taken at 24, 48, and 72 hr post treatment (8, 9, and 10 days post infection) to measure the effect of KDSR KO and palmitate treatment on cell viability relative to CTRL vehicle treated cells.
To determine whether KDSR KO and 50 uM palmitate have a synergistic toxic effect on cells (FIG. 2C), we used the Bliss Independence Model. […]

DLD1 cells [7] = assay: Lipid free viability assay; settings: 15 μM myriocin, 72 hr, 10% charcoal stripped serum (FIG. 1F)
Protocol: DLD1 cells were grown in media with 10% FBS (normal growth condition) or 10% charcoal stripped serum (lipid free condition) for 1 week prior to lentiviral infection for CRISPR-mediated gene KO. Cells were infected in 6 wells, selected with puromycin, and plated to 96 wells as described previously in the appropriate serum conditions throughout the entirety of the experiment. Baseline CTG was measured at day 7 post infection, and subsequently at day 10 post infection. For the myriocin treated condition, CTRL cells were treated with 15 μM myriocin at day 7 post infection and were treated for 72 hr at the time of day 10 CTG measurement. Viability was calculated over the course of 3 days of growth and measured relative to CTRL untreated condition.

DLD1 cells [8] = assay: LC-MS quantification of sphingomyelin and ceramide after CRISPR-Cas9 gene KO; settings: biological replicates (1)-(3); for Total (RATIO), Cer + SM by LC-MS / Cer (RATIO), total ceramide level by LC-MS / SM (RATIO), total sphingomyelin level by LC-MS: 8 days post lentiviral infection; for Cer (RATIO), total ceramide level by LC-MS / SM (RATIO), total sphingomyelin level by LC-MS: normalized intensities relative to internal standards per mg protein
Protocol: DLD1 cells were plated to 6 wells and infected for lentiviral transduction of lentiCRISPR v2 with nontargeting CTRL guide, KDSR g1, or SPTLC1 g1, with each condition infected in biological triplicate. Cells were selected with puromycin for 5 days and collected for analysis at 8 days post lentiviral infection. Cells were trypsinized, quickly washed 2× in cold PBS, centrifuged, and the cell pellet was collected for analysis. Lipid analysis was performed at the UCSD Lipidomics Core^17. For quantification of sphingomyelin and ceramide species, samples were extracted via Butanol-Methanol (BUME) with 100 ul/sample. The lipid (top) layer was collected, solvent was removed, and samples were reconstituted in 100 ul LC solvent (18:1:1, IPA/DCM/MeOH). Samples were run on Reverse Phase-Ultra Performance Liquid Chromatography (Thermo Vanquish UPLC) on the Cortecs T3 C18 column. Mass spectrometry was performed on the Thermo Q Exactive Mass Spectrometer with MS/MS data dependent acquisition scan mode and analyzed with Lipid Data Analyzer (LDA) and LipidSearch software. All data are expressed as normalized intensities relative to exactly measured internal standards and constitute relative abundances per mg protein. For the identification of each lipid molecular species including its exact fatty acid composition, we used MS/MS footprinting techniques. Details of methods and nomenclature used were adapted from a previous study^18.
Total sphingomyelin levels under each condition were calculated as the sum of 121 analytes and total ceramide levels as the sum of 81 analytes. The ratio of total sphingomyelin and ceramide levels in KDSR and SPTLC1 KO cells were calculated relative to CTRL cells as shown in FIG. 1e. The select species of sphingomyelins and ceramides shown in Extended Data FIG. 2 represent the top 10 most abundant species that were detected in all 3 biological replicate samples of the CTRL condition to show the effect of SPTLC1 and KDSR KO on the most abundant sphingolipids compared to CTRL.

KDSR = assay: Western blot of KDSR protein after CRISPR/Cas9 targeting in non-cancerous cell lines; settings: seven non-cancerous cell lines (THLE3, CCD841CON, CCD18Lu, HIEC6, HS67, GM05565, GM02037), FIGS. 10A-10G
Protocol: as §1
Western blots were performed to confirm that KDSR expression was reduced or eliminated in the cell line after CRISPR/Cas9 KO of KDSR. […] For each experiment, actin served as a loading control.

CCCCCCCCCCCCCCCC(=O)C(N)CO (stereo not drawn) [3KDS, 3-ketodihydrosphingosine]
effect of exogenous 3KDS on cell viability (DLD1 cells [1]; DLD1 cells, various doses, 24 hr (FIG. 2B)): cell toxicity
toxicity of 3KDS in KDSR KO cells (DLD1 cells [1]; KDSR g1 and g2 KO DLD1 cells, 5 μM 3KDS, 24 hr (FIG. 6)): even more toxic
cell morphology after 3KDS treatment (DLD1 cells [2]; wildtype DLD1 cells, 10 μM 3KDS, 24 hr (FIG. 2G)): aberrant ‘vacuolar’ morphology

CC(C)C[C@@H](C=O)NC(=O)[C@H](CC(C)C)NC(=O)[C@H](CC(C)C)NC(=O)OCc1ccccc1 [MG132, MG-132] (Cbz-Leu-Leu-Leu-aldehyde)
morphological phenotype / ER structure (DLD1 cells [2]; DLD1 cells, 3 μM MG132, 18 hr, light microscope and calnexin IF (FIG. 4D)): strongly resembled the aberrant enlarged ER structures
levels of K48 ubiquitinated proteins (DLD1 cells [3]): accumulation of K48 ubiquitinated proteins
protein aggresome formation (DLD1 cells [4]): induced formation of protein aggresomes

CCCCCCC(=O)CCCCCC/C=C/C[C@@H](O)[C@H](O)[C@@](N)(CO)C(=O)O [myriocin, Myriocin]
3KDS accumulation in KDSR KO cells under SPT inhibition (DLD1 cells [5]; KDSR KO DLD1 cells, 15 μM myriocin, 48 hr (FIG. 2F)): prevented 3KDS accumulation
effect of myriocin on viability of KDSR KO cells (DLD1 cells [6]; 2 μM myriocin, 72 hr (FIG. 2D)): rescued against the loss of viability
viability in lipid-free serum (DLD1 cells [7]): detrimental to cancer cell viability
morphology of KDSR KO cells under SPT inhibition (DLD1 cells [2]; KDSR KO DLD1 cells, 15 μM myriocin, 48 hr (FIG. 2G)): rescued the aberrant morphological phenotype

CCCCCCCCCCCCCCCC(=O)O [palmitate, Palmitic Acid]
accumulation of 3KDS (DLD1 cells [5]; KDSR KO DLD1 cells treated with 50 μM palmitate, 48 hr, relative to CTRL vehicle (FIG. 2F)): 800 fold
effect of palmitate on viability of KDSR KO cells (Bliss independence) (DLD1 cells [6]; 50 μM palmitate, 48 hr (FIG. 2C)): synergized with the toxic effect of KDSR KO

KDSR g1: CRISPR-Cas9 guide RNA targeting KDSR, TGTGTGCAAACCAGAACAGG, SEQ ID NO: 4 (listed as DNA, chemistry not given here; listed as Homo sapiens)
Total (RATIO), Cer + SM by LC-MS (DLD1 cells [8]): 535.9 and 709.0 and 681.9
Cer (RATIO), total ceramide level by LC-MS (DLD1 cells [8]): 67.9 and 101.4 and 99.2
SM (RATIO), total sphingomyelin level by LC-MS (DLD1 cells [8]): 468.0 and 607.6 and 582.7
Cer (Percentage of total) (DLD1 cells [8]): 12.7% and 14.3% and 14.5%
SM (Percentage of total) (DLD1 cells [8]): 87.3% and 85.7% and 85.5%
KDSR expression after CRISPR/Cas9 targeting (KDSR): eliminated or substantially reduced

KDSR g2: CRISPR-Cas9 guide RNA targeting KDSR, GGCAAACTTGGATGCAGAGT, SEQ ID NO: 5 (listed as DNA, chemistry not given here; listed as Homo sapiens)
KDSR expression after CRISPR/Cas9 targeting (KDSR): eliminated or substantially reduced

SPTLC1 g1: CRISPR-Cas9 guide RNA targeting SPTLC1, GTGCTACTCACCTTAACCCT, SEQ ID NO: 2 (expressed or natural sequence; listed as Homo sapiens)
Total (RATIO), Cer + SM by LC-MS (DLD1 cells [8]): 720.1 and 485.8 and 520.4
Cer (RATIO), total ceramide level by LC-MS (DLD1 cells [8]): 66.2 and 36.6 and 66.9
SM (RATIO), total sphingomyelin level by LC-MS (DLD1 cells [8]): 653.9 and 449.2 and 453.5
Cer (Percentage of total) (DLD1 cells [8]): 9.2% and 7.5% and 12.9%
SM (Percentage of total) (DLD1 cells [8]): 90.8% and 92.5% and 87.1%
